# In ChEMBL document CHEMBL3632460, “Discovery of a Novel Series of Imidazo[1,2-a]pyrimidine Derivatives as Potent and Orally Bioavailable Lipoprotein-Associated Phospholipase A2 Inhibitors” (J Med Chem, 2015):
# The source made the active and inactive calls. The rule behind the calls is not given here.
# How the values were obtained:
# [1] = AUC (0 to infinity) in Sprague-Dawley rat at 50 mg/kg, po after 48 hrs by LC-MS method; type: ADME, organism-based; parameters: dose 50 mg/kg, route oral, time infinity; details: in vivo
# [2] = molecular target: T1, Platelet-activating factor acetylhydrolase (Mus musculus) (UniProt Q60963); details: Plasma, at 1 µM
# T1 sequence (whole entry): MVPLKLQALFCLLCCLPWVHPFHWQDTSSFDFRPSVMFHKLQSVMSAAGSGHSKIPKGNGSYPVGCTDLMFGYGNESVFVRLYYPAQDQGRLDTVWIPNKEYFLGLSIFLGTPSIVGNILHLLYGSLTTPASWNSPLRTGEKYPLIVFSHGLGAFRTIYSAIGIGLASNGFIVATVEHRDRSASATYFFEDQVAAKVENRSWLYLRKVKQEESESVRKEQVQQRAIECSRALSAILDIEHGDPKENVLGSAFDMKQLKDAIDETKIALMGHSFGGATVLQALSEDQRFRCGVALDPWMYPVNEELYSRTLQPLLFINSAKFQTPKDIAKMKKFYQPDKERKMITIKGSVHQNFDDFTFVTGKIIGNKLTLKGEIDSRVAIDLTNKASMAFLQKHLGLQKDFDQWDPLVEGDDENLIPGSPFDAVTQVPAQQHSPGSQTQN
# Description: Inhibition of Lp-PLA2 in mouse plasma at 1 uM using 2-thio-PAF substrate after 10 mins
# [3] = molecular target: T1, Platelet-activating factor acetylhydrolase (Mus musculus); details: Plasma, at 100 nM
# [4] = Cmax in Sprague-Dawley rat at 50 mg/kg, po after 48 hrs by LC-MS method; type: ADME, organism-based; parameters: dose 50 mg/kg, route oral; details: in vivo
# [5] = Terminal half life in Sprague-Dawley rat at 50 mg/kg, po after 48 hrs by LC-MS method; type: ADME, organism-based; details: in vivo, read-out: beta t1/2 (converted)
# [6] = in vitro; details: Wistar, rat, liver S9 fractions
# [7] = in vitro; details: Wistar, rat, liver S9 fractions; remark: listed apart in the source
# [8] = in vitro; details: human, liver S9 fractions
# [9] = in vitro; details: human, liver S9 fractions; remark: listed apart in the source
# [10] = in vivo; details: Sprague-Dawley, rat, po, 25 mg/kg
# Description: AUC (0 to infinity) in Sprague-Dawley rat at 25 mg/kg, po after 48 hrs by LC-MS method
# [11] = in vivo; details: Sprague-Dawley, rat, po, 25 mg/kg; remark: listed apart in the source
# Description: Terminal half life in Sprague-Dawley rat at 25 mg/kg, po after 48 hrs by LC-MS method
# [12] = test system: Rattus norvegicus; experiment: In vivo inhibition of Lp-PLA2 in Sprague-Dawley rat at 25 mg/kg, po after 5 hrs; type: functional
# [13] = in vivo; details: Sprague-Dawley, rat, po, 25 mg/kg; remark: listed apart in the source
# Description: Cmax in Sprague-Dawley rat at 25 mg/kg, po after 48 hrs by LC-MS method
# [14] = species on record: Rattus norvegicus; details: Sprague-Dawley, Plasma, 10 nM
# Description: Inhibition of Lp-PLA2 in Sprague-Dawley rat plasma at 10 nM using 2-thio-PAF substrate after 10 mins
# [15] = species on record: Rattus norvegicus; details: Sprague-Dawley, 25 mg/kg
# Description: In vivo inhibition of Lp-PLA2 in Sprague-Dawley rat at 25 mg/kg, po measured over 24 hrs
SMILES,AUC(0-inf) [1] [ng·h/mL],inhibition [2] [%],inhibition [3] [%],Cmax [4] [ng/mL],half-life [5] [min],half-life at 0.1 µM [6] [min],CLint scaled at 0.1 µM [7] [mL/min/kg],half-life at 0.1 µM [8] [min],CLint scaled at 0.1 µM [9] [mL/min/kg],AUC(0-inf) at 48 h [10] [ng·h/mL],half-life at 48 h [11] [min],inhibition in vivo at 25 mg/kg [12] [%],Cmax at 48 h [13] [ng/mL],inhibition [14] [%],inhibition [15]
CCN(CC)CCN(Cc1ccc(-c2ccc(C(F)(F)F)cc2)cc1)C(=O)Cn1c(SCc2ccc(F)cc2)nc(=O)c2c1CCC2 [DARAPLADIB],2110,99,96,150,690,,,,,,,,,,
FC(F)(F)c1cc(Oc2ccc(CCOc3ccn4c(-c5cncnc5)cnc4n3)cc2)ccc1Cl,,53,2,,,110,34.3,42,55.1,,,,,,
Fc1cc(COc2ccn3c(-c4cncnc4)cnc3n2)ccc1Oc1ccc(Cl)c(C(F)(F)F)c1,,13,,,,169,,331,,78100,800,75,2600,11,Active
Fc1cc(COc2ccn3c(-c4cncnc4)cnc3n2)cc(F)c1Oc1ccc(Cl)c(C(F)(F)F)c1,,8,,,,196,,212,,,,,,,
Cn1cc(-c2cnc3nc(OCc4ccc(Oc5ccc(Cl)c(C(F)(F)F)c5)cc4)ccn23)cn1,,28,,,,,,180,,,,,,13,
N#Cc1cc(COc2ccn3c(-c4cncnc4)cnc3n2)ccc1Oc1ccc(Cl)c(C(F)(F)F)c1,,0,,,,40,,106,,16100,194,,1400,14,
FC(F)(F)c1cc(Oc2ccc(COc3ccn4c(-c5cncnc5)cnc4n3)cc2)ccc1Cl,,56,10,,,348,,116,,88000,566,75,3520,10,Active
